Experimental data: paper PMC7915666, “Antitrypanosomal and Antileishmanial Activity of Chalcones and Flavanones from Polygonum salicifolium” (Pathogens, 2021)
In brackets after ≈: the same amount, converted by molar mass. Like-named read-outs stand apart in the source and are kept apart here.

Columns and labels:
[1] = test system: T. congolense IL3000-WT; assay: Alamar Blue (resazurin) assay, T. congolense IL3000 wild-type bloodstream forms
[2] = test system: T. congolense DA-Res; assay type: cell-based, Trypanosoma congolense; settings: for EC50: Trypanosoma congolense, read-out: T. congolense EC50, DA-Res
Experimental: (§1) The four compounds were tested for activity against the following three kinetoplastid pathogens: Trypanosoma brucei brucei, Trypanosoma congolense, and Leishmania mexicana. For the two Trypanosoma species, the compounds were tested in parallel against strains that were resistant to the most common trypanocides. T. b. brucei B48 is highly resistant to the entire classes of diamidines and melaminophenyl arsenicals, and T. congolense DA-Res was rendered resistant to diminazene aceturate by means of in vitro exposure to the drug. […] For the drug-resistant trypanosome strains, highly significant resistance to diamidines was confirmed, but there was no cross-resistance with the chalcones and flavanones. […] While this dataset of two chalcones is self-evidently insufficient for a structure–activity relationship (SAR) analysis, it is clear that the position of the hydroxy and methoxy groups on ring A (Figure 1) influenced the trypanocidal activity without increasing the toxicity.

[3] = Drug toxicity assay in human foreskin fibroblast (HFF) cells, resazurin; assay type: cell-based; settings: HFF (human foreskin fibroblast) cells; human foreskin fibroblasts; highest concentration tested 100 µg/mL; mean ± SEM, n>=3
[4] = test system: HFF cells; assay: as above; assay type: cell-based; settings: EC50 (HFF)/EC50(427-WT)
[5] = test system: T. b. brucei 427-WT; assay: Alamar Blue (resazurin) assay, T. b. brucei Lister 427 wild-type bloodstream forms; settings: for EC50: Trypanosoma brucei; for activity against Trypanosoma species (in words): Trypanosoma species (T. b. brucei and T. congolense)
[6] = test system: T. b. brucei B48; assay: Alamar Blue (resazurin) assay, multi-drug resistant T. b. brucei B48; assay type: cell-based; settings: Trypanosoma brucei, read-out: T. b. brucei EC50, B48
Experimental: as §1

[7] = 72 h, read-out: T. b. brucei EC50, 427-WT, bloodstream forms, 48 h + 24 h resazurin, mean ± SEM, n>=3

COc1cc(O)c(C(=O)/C=C/c2ccccc2)c(OC)c1 [Compound 1, 2′,4′-dimethoxy-6′-hydroxychalcone]
activity against T. congolense (in words) [1]: moderate activity
EC50 ([1]; Trypanosoma congolense, read-out: EC50 against T. congolense): 2.5 µg/mL (≈ 8.79 µM)
EC50 [2]: 8.8 ± 0.28 µM
EC50 at 54 h [3]: > 350 µM
SI (Tbb), selectivity index = EC50(HFF)/EC50(Tbb) [4]: >172
EC50 [5, 7]: ~2 µM
EC50 ([5]; read-out: EC50 against Trypanosoma brucei brucei, standard resazurin-based assay): 0.58 µg/mL
EC50 [6]: 1.8 µM

COc1cc(O)c(OC)c(O)c1C(=O)/C=C/c1ccccc1 [Compound 2, 2′,5′-dimethoxy-4′,6′-dihydroxychalcone]
fold less activity than compound 1 against T. congolense ([1]; relative to compound 1): ~4 fold
EC50 [2]: 28.6 ± 1.4 µM
EC50 at 54 h [3]: > 330 µM
SI (Tbb), selectivity index = EC50(HFF)/EC50(Tbb) [4]: >22.8
EC50 [5, 7]: 14.6 ± 0.8 µM
fold less activity than compound 1 against T. b. brucei ([5]; relative to compound 1): about 8 fold
EC50 [6]: 13.9 ± 0.6 µM

COc1cc(OC)c2c(c1)OC(c1ccccc1)CC2=O (stereo not drawn) [Compound 3, 5,7-dimethoxyflavanone]
EC50 [2]: 106 ± 15 µM
EC50 at 54 h [3]: > 350 µM
SI (Tbb), selectivity index = EC50(HFF)/EC50(Tbb) [4]: >11.7
EC50 [5, 7]: 30.1 ± 0.95 µM
activity against Trypanosoma species (in words) [5]: moderate activity
EC50 [6]: 30.3 ± 1.1 µM

COc1cc(O)c(OC)c2c1C(=O)CC(c1ccccc1)O2 (stereo not drawn) [Compound 4, 5,8-dimethoxy-7-hydroxyflavanone]
EC50 [2]: 48 ± 6.2 µM
EC50 at 54 h [3]: > 330 µM
SI (Tbb), selectivity index = EC50(HFF)/EC50(Tbb) [4]: >6.0
EC50 [5, 7]: 55.3 ± 1.6 µM
activity against Trypanosoma species (in words) [5]: moderate activity
EC50 [6]: 51.9 ± 1.6 µM

N=C(N)c1ccc(/N=N/Nc2ccc(C(=N)N)cc2)cc1 [Diminazene, diminazene aceturate, reference compound]
EC50 [2]: 1.43 ± 0.03 µM
resistance of clone 6C3 versus IL3000 ([2]; line adapted in vitro to diminazene aceturate): ~ 10 fold
EC50 [5, 7]: 0.15 ± 0.01 µM
EC50 [6]: 2.4 ± 0.36 µM

N=C(N)c1ccc(OCCCCCOc2ccc(C(=N)N)cc2)cc1 [Pentamidine, reference compound]
EC50 [5, 7]: 0.0034 ± 0.0004 µM
EC50 [6]: 0.72 ± 0.03 µM
